Experimental findings from patent US20260138988A1, “Spiropyrrolidine Derived Antiviral Agents” (Enanta Pharmaceuticals, Inc., priority 2021, published 2026) are described below.

The first assay concerns the target SARS-CoV-2 3CL-protease (Severe acute respiratory syndrome coronavirus 2, UniProt P0DTD1). Kind of assay: SARS-CoV-2 3C-Like (3CL) Protease Fluorescence Assay (FRET). The format is biochemical. Conditions: IC50, SARS-CoV-2 3CL-protease 10 nM, test compounds 0-10 μM, duplicate.
Consider `C[C@H](NC(=O)C(F)(F)C(F)(F)C(F)(F)F)C(=O)N(C)[C@@H](C)C(=O)N1C[C@]2(C[C@H]1C#N)C(=O)Nc1ccccc12` [Example 198], for which the IC50 is below 100 nM.

Staying with this assay, now noted: SARS-CoV-2 3CL-protease 10 nM, test compounds 0-10 μM, duplicate, read-out: IC50.
Turning to `C[C@H](NC(=O)CCCC(F)(F)F)C(=O)N(C)[C@@H](CC(C)(C)C)C(=O)N1C[C@]2(C[C@H]1C#N)C(=O)Nc1ccccc12` [Example 264], the concentration for half-maximal inhibition (IC50) is below 100 nM. `C[C@@H](NC(=O)OCc1ccccc1)C(=O)N(C)[C@@H](CC(C)(C)C)C(=O)N1C[C@]2(C[C@H]1C#N)C(=O)Nc1ccccc12` [Example 307]: the IC50 was below 100 nM. Regarding `C[C@H](Nc1ccc(F)cc1)C(=O)N[C@@H](CC(C)(C)C)C(=O)N1C[C@]2(C[C@H]1C#N)C(=O)Nc1ccccc12` [Example 336], the half-maximal inhibitory concentration (IC50) was 100 to 1000 nM. On to `C[C@H](NC(=O)C(C)(C)C)C(=O)N[C@@H](CC(C)(C)C)C(=O)N1C[C@]2(C[C@H]1C#N)C(=O)Nc1ccccc12` [Example 219], for which the 50% inhibitory concentration (IC50) is below 100 nM. Same read-out and setting: to `CC(C)C[C@@H](C(=O)N1C[C@]2(C[C@H]1C#N)C(=O)Nc1ccccc12)N(C)C(=O)[C@H](C)NC(=O)c1ccc(C(F)(F)F)cc1C(F)(F)F` [Example 291] belongs below 100 nM; to `CC(C)C[C@@H](C(=O)N1C[C@]2(C[C@H]1C#N)C(=O)Nc1ccccc12)n1cccc(NC(=O)C2CC2)c1=O` [Example 357], below 100 nM; to `CC(C)C[C@@H](C(=O)N1C[C@]2(C[C@H]1C#N)C(=O)Nc1ccccc12)N(C)C(=O)[C@@H]1CC2(CC2)CN1C(C)C` [Example 241], below 100 nM.

Consider `C[C@H](NC(=O)c1ccc(Cl)cc1)C(=O)N(C)[C@@H](CC(C)(C)C)C(=O)N1C[C@]2(C[C@H]1C#N)C(=O)Nc1ccccc12` [Example 211], for which the IC50 is below 100 nM. With `C[C@@H]1NC(=O)CCCc2ccc3c(c2)[C@@]2(C[C@@H](C#N)N(C2)C(=O)[C@H](CC(C)(C)C)N(C)C1=O)C(=O)N3` [Example 378], the half-inhibitory concentration (IC50) is below 100 nM.

Turning to `CC(C)(C)C[C@H](NC(=O)[C@@H](NC(=O)C(F)(F)F)c1ccccc1)C(=O)N1C[C@]2(C[C@H]1C#N)C(=O)Nc1ccccc12` [Example 245], the half-maximal inhibitory concentration (IC50) is below 100 nM. Take `CC(C)C[C@@H](C(=O)N1C[C@]2(C[C@H]1C#N)C(=O)Nc1ccccc12)N(C)C(=O)[C@H](C)NC(=O)c1ccc(F)cc1C(F)(F)F` [Example 145]: the IC50 is below 100 nM.

Regarding `CC(C)N1[C@H](C(F)(F)F)CC[C@H]1C(=O)N(C)[C@@H](CC(C)(C)C)C(=O)N1C[C@]2(C[C@H]1C#N)C(=O)Nc1ccccc12` [Example 236], the half-inhibitory concentration (IC50) was 100 to 1000 nM.

`CCN(C(=O)[C@H](C)NC(=O)c1ccc(F)cc1)[C@@H](CC(C)C)C(=O)N1C[C@]2(C[C@H]1C#N)C(=O)Nc1ccccc12` [Example 372]: the half-maximal inhibitory concentration (IC50) is below 100 nM. Still for that read-out and setting: to `C[C@H](NC(=O)C(F)(F)F)C(=O)N[C@@H](CC(C)(C)C)C(=O)N1C[C@]2(C[C@H]1C#N)C(=O)Nc1ccccc12` [Example 222] belongs below 100 nM; to `CCN(C(=O)[C@H](C)NC(=O)c1c(F)cc(F)cc1F)[C@@H](CC(C)C)C(=O)N1C[C@]2(C[C@H]1C#N)C(=O)Nc1ccccc12` [Example 362], below 100 nM; to `CC(C)(C)C[C@H](NC(=O)[C@H](Cc1ccccc1)Nc1ccc(F)cc1)C(=O)N1C[C@]2(C[C@H]1C#N)C(=O)Nc1ccccc12` [Example 339], below 100 nM. On the same count and under the same terms, to `CC(C)C[C@@H](C(=O)N1C[C@]2(C[C@H]1C#N)C(=O)Nc1ccccc12)N(C)C(=O)[C@H](C)NC(=O)c1cccc(-c2ccc(F)cc2F)c1` [Example 146] belongs below 100 nM; to `CC(C)(C)C[C@H](NC(=O)[C@@H](Nc1ccc2ccccc2c1)C1CC1)C(=O)N1C[C@]2(C[C@H]1C#N)C(=O)Nc1ccccc12` [Example 342], below 100 nM; to `C[C@@H]1NC(=O)CCCCCCc2ccc3c(c2)[C@@]2(C[C@@H](C#N)N(C2)C(=O)[C@H](CC(C)(C)C)NC1=O)C(=O)N3` [Example 379], above 1000 nM. Still for that read-out and setting: to `CC(C)C[C@@H](C(=O)N1C[C@]2(C[C@H]1C#N)C(=O)Nc1ccccc12)N(C)C(=O)[C@H](C)NC(=O)C1(F)CC2(CCC2)C1` [Example 141] belongs below 100 nM; to `CC(C)CC(NC(=O)c1cnn(CC(F)(F)F)c1)C(=O)N1CC[C@H](c2ccccc2)[C@H]1C(=O)N1C[C@]2(C[C@H]1C#N)C(=O)Nc1ccccc12` (stereo partly shown) [Example 346], below 100 nM. Take `[2H]C([2H])([2H])N(C(=O)[C@H](C)NC(=O)C(F)(F)C(F)(F)F)[C@@H](CCCC)C(=O)N1C[C@]2(C[C@H]1C#N)C(=O)Nc1ccccc12` [Example 192]: the IC50 was below 100 nM.

In the case of `CC(C)(C)C[C@H](NC(=O)[C@@H](NC(=O)c1ccc(F)cc1)c1ccccc1)C(=O)N1C[C@]2(C[C@H]1C#N)C(=O)Nc1ccccc12` [Example 247], the IC50 is below 100 nM. On to `CC(C)(C)C[C@H](NC(=O)[C@H](CC1CC1)NC(=O)C12CC3CC(CC(C3)C1)C2)C(=O)N1C[C@]2(C[C@H]1C#N)C(=O)Nc1ccccc12` [Example 319], for which the IC50 is below 100 nM. As to `C[C@H](NC(=O)C(C)(C)C)C(=O)N(C)[C@@H](CC(C)(C)C)C(=O)N1C[C@]2(C[C@H]1C#N)C(=O)Nc1ccccc12` [Example 209], the 50% inhibitory concentration (IC50) was below 100 nM. On the same count and under the same terms, to `C[C@H](NC(=O)C(F)(F)Cc1ccc(F)cc1)C(=O)N(C)[C@@H](CC(C)(C)C)C(=O)N1C[C@]2(C[C@H]1C#N)C(=O)Nc1ccccc12` [Example 243] belongs below 100 nM; to `C[C@H](NC(=O)/C=C/c1ccc(F)cc1)C(=O)N(C)[C@@H](CC(C)(C)C)C(=O)N1C[C@]2(C[C@H]1C#N)C(=O)Nc1ccccc12` [Example 242], below 100 nM; to `CC(C)C[C@@H](C(=O)N1C[C@]2(C[C@H]1C#N)C(=O)Nc1ccccc12)N(C)C(=O)[C@H](C)NC(=O)c1c(F)ccc2ccoc12` [Example 187], below 100 nM. On to `C[C@H](NC(=O)C(F)(F)C(F)(F)F)C(=O)N(C)[C@@H](CC(C)(C)C)C(=O)N1C[C@]2(C[C@H]1C#N)C(=O)Nc1ccc(Br)cc12` [Example 171], for which the IC50 is below 100 nM.

Take `CCN(C(=O)[C@H](C)NC(=O)C(F)(F)F)[C@@H](CC(C)C)C(=O)N1C[C@]2(C[C@H]1C#N)C(=O)Nc1ccccc12` [Example 365]: the 50% inhibitory concentration (IC50) was below 100 nM. For the molecule `C[C@H](NC(=O)c1ccc(OC2CC2)c(OC2CC2)c1)C(=O)N(C)[C@@H](CC(C)(C)C)C(=O)N1C[C@]2(C[C@H]1C#N)C(=O)Nc1ccccc12` [Example 216], the IC50 is below 100 nM. Turning to `CC(C)(C)C[C@H](NC(=O)[C@H](CC1CC1)NC(=O)c1ccc(F)c(F)c1)C(=O)N1C[C@]2(C[C@H]1C#N)C(=O)Nc1ccccc12` [Example 326], the IC50 was below 100 nM.

As for `CC(C)C[C@@H](C(=O)N1C[C@]2(C[C@H]1C#N)C(=O)Nc1ccccc12)N(C)C(=O)[C@H](C)NC(=O)c1cccc(-c2ccc(C(F)(F)F)cc2)c1` [Example 147], the IC50 was below 100 nM. As to `C[C@H](NC(=O)c1cc(F)c(F)c(F)c1)C(=O)N(C)[C@@H](CC(C)(C)C)C(=O)N1C[C@]2(C[C@H]1C#N)C(=O)Nc1ccccc12` [Example 214], the 50% inhibitory concentration (IC50) is below 100 nM. With `CC(C)C[C@@H](C(=O)N1C[C@]2(C[C@H]1C#N)C(=O)Nc1ccccc12)N(C)C(=O)[C@H](C)NC(=O)C(F)(F)CC(C)C` [Example 142], the half-maximal inhibitory concentration (IC50) was below 100 nM. Take `CC(C)C[C@@H](C(=O)N1C[C@]2(C[C@H]1C#N)C(=O)Nc1ccccc12)N(C)C(=O)[C@H](C)NC(=O)C(F)(F)C(C)C` [Example 276]: the IC50 was below 100 nM.

As usually defined, the IC50 is the concentration needed to halve the response being measured.
